According to patent US20240216375A1, “USE OF S[…] AND/OR ALPHA 1-ADRENERGIC RECEPTOR INHIBITOR IN PREPARING MEDICINE FOR TREATING DRY EYES” (Eye Institute of Shandong First Medical University …, priority 2022, published 2024):

Tests used:
Format in all cases: in vivo
[1] = system: mice treated with scopolamine (dry eye model); test: Expression levels of inflammatory factors of the lacrimal gland by qPCR in scopolamine-induced dry eye model mice; settings: intraperitoneal injection 100 mg/kg, 7th day of treatment
Description: (§1) Female C57BL/6 mice were selected for the experiment and placed in a perforated cage with a constant fan flow and a humidity <20%. The modeled mice with dry eye were induced by subcutaneous injection of scopolamine (0.5 mg/0.2 ml, 3 times a day) for 7 consecutive days (refer to the following literature: Wu Y, Bu J, Yang Y, et al. Therapeutic effect of MK2 inhibitor on experimental murine dry eye. Invest Ophthalmol Vis Sci. 2017; 58:4898-4907), the mice not treated and fed under a normal condition were used as a control, and the experimental mice had no corneal defects and neovascularization or conjunctival damage.
After 7 days of modeling, the lacrimal glands and the corneas of the mice were taken to extract mRNA. Expression levels of inflammatory factors TNFα, TGFβ1, and IL-1β were detected by qPCR. The result was shown in FIG. 3 (expression levels of inflammatory factors of the lacrimal glands (left) and the corneas (right) 7 days after modeling of mice treated with scopolamine).
After 7 days of the treatment, staining by sodium fluorescein was used to observe damage of a corneal epithelial barrier function. The lacrimal glands of the mice were taken for qPCR detection.
On the 7th day of the treatment, staining by sodium fluorescein was used to observe damage of a corneal epithelial barrier function. The lacrimal glands of the mice were taken for qPCR detection.

[2] = system: mice treated with scopolamine (dry eye model); test: Tear secretion (phenol red cotton thread) in scopolamine-induced dry eye model mice; settings: intraperitoneal injection 100 mg/kg once a day from 3rd day after modeling for 4 days, observed 5 and 7 days, vs normal saline
mice with diabetes = test: Tear secretion in mice with diabetes (STZ type 1 diabetes model, diabetes-associated dry eye); settings: intraperitoneal injection 100 mg/kg once a day for 4 days, observed 5 and 7 days, vs normal saline
Description: A phenol red cotton thread was used to detect the tear production of mice. One end of the phenol red cotton thread was placed at an inner ⅓ of the conjunctival sac of the lower eyelid, after 20 s, the phenol red cotton thread was taken out, and the length of the cotton thread wetted with tears was measured. The result was shown in FIG. 1 (tear secretion after modeling of mice treated with scopolamine).
Male C57BL/6 mice were selected, a type 1 diabetes model was established by intraperitoneal injection of streptozotocin (STZ) (the establishment method refers to the prior art: Lingling, Yang, Guohu, Di, Xia, & Qi, et al. Substance p promotes diabetic corneal epithelial wound healing through molecular mechanisms mediated via the neurokinin-1 receptor. Diabetes. 2014; 63: 4262-4274.), and the mice with blood glucose value greater than 300 mg/dL were screened for experiments after 1 month. The mice not treated and fed under a normal condition were used as a control, and the experimental mice had no corneal defects and neovascularization or conjunctival damage. The result was shown in FIG. 11 (tear secretion and ocular surface inflammation after modeling of mice with diabetes, tear secretion (left) and ocular surface inflammation (right)). […]

[3] = system: mice treated with scopolamine (dry eye model); test: Corneal staining by fluorescein sodium in scopolamine-induced dry eye model mice; settings: intraperitoneal injection 100 mg/kg, 7th day of treatment
Description: as §1
Staining by fluorescein sodium was used to observe damage of a corneal epithelial barrier function, observation was performed with a slit lamp, and photographing was performed. The result was shown in FIG. 2 (corneal staining by fluorescein sodium 7 days after modeling of mice treated with scopolamine). Compared with the mice in the control group, the mice in the scopolamine group were positive in staining by fluorescein sodium in scopolamine 7 days after modeling.
After 7 days of the treatment, staining by sodium fluorescein was used to observe damage of a corneal epithelial barrier function. The lacrimal glands of the mice were taken for qPCR detection. […]

**Q.** What does the source list for `NCCc1cc(O)c(O)cc1O` [6-hydroxydopamine]?
**A.** expression levels of inflammatory factors TNFα and TGFβ1 of the lacrimal gland [1]: decrease expression levels of inflammatory factors TNFα and TGFβ1; tear secretion [2]: significantly increase the tear secretion; tear secretion (mice with diabetes): significantly increase the tear secretion; staining of ocular surface by fluorescein sodium [3]: reduce staining of an ocular surface by fluorescein sodium
